This assay deals with T1, human DGAT2 (hDGAT2) (Homo sapiens, UniProt Q96PD7).
T1 construct: made in house; host or cells: Sf-9 insect cells (baculovirus), membrane fraction
T1 sequence (Q96PD7 1-388): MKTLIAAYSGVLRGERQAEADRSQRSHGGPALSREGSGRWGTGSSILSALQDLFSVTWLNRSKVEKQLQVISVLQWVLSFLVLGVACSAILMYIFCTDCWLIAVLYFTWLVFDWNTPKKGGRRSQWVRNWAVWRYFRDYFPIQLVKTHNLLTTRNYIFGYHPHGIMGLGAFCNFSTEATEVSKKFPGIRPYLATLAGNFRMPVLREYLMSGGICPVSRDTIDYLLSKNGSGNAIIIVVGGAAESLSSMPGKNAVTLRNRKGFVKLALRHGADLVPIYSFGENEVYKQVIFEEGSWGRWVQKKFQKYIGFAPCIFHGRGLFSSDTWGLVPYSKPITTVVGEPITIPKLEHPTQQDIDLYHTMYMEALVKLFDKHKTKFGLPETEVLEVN
Kind of assay: DGAT2 Enzymatic Activity Assay. The format is biochemical. The settings on record: membrane prep of Sf-9 cells expressing hDGAT2; 13C18-triolein product by LC/MS/MS; 25 μM diolein, 5 μM 13C oleoyl-CoA, rt. Summed up: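 Membranes from Sf-9 cells expressing untagged human DGAT2 (baculovirus, 48 h) used as enzyme at rt. The product ^13C18-triolein is quantified by LC/MS/MS against a ^13C21-triolein internal standard. Percent inhibition is taken from high and low controls, and IC50 is derived.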

SMILES strings stand for the structures.

Take `Cc1c(C(=O)NC2(C)CCS(=O)(=O)CC2)nc2ccc(Oc3ncc(C(C)(C)F)cc3OCC(F)(F)F)cn12` [Example 147, 6-[[5-(1-fluoro-1-methyl-ethyl)-3-(2,2,2-trifluoroethoxy)-2-pyridyl]oxy]-3-methyl-N-(4-methyl-1,1-dioxo-thian-4-yl)imidazo[1,2-a]pyridine-2-carboxamide]: the IC50 stood at 41 nM. In other words, the double-digit nanomolar range. As for `Cc1c(C(=O)NC2(C)CCS(=O)(=O)CC2)nc2ccc(Oc3ncc(O)cc3OCC(F)(F)F)cn12` [Example 148, 6-[[5-hydroxy-3-(2,2,2-trifluoroethoxy)-2-pyridyl]oxy]-3-methyl-N-(4-methyl-1,1-dioxo-thian-4-yl)imidazo[1,2-a]pyridine-2-carboxamide], the figure is 80 nM; as for `Cc1c(C(=O)NC2(C)CCS(=O)(=O)CC2)nc2ccc(Oc3ncc(C#N)cc3OCC(F)(F)F)cn12` [Example 149, 6-[[5-cyano-3-(2,2,2-trifluoroethoxy)-2-pyridyl]oxy]-3-methyl-N-(4-methyl-1,1-dioxo-thian-4-yl)imidazo[1,2-a]pyridine-2-carboxamide], 33 nM. `Cc1c(C(=O)NC2(C)CCS(=O)(=O)CC2)nc2ccc(Oc3ncc(S(C)(=O)=O)cc3OCC(F)(F)F)cn12` [Example 150, 3-methyl-N-(4-methyl-1,1-dioxo-thian-4-yl)-6-[[5-methylsulfonyl-3-(2,2,2-trifluoroethoxy)-2-pyridyl]oxy]imidazo[1,2-a]pyridine-2-carboxamide] displayed an IC50 of 58 nM. This IC50 lies about 1.8-fold higher than the previous one. For `Cc1c(C(=O)NC2(C)CCS(=O)(=O)CC2)nc2ccc(Oc3ncc(C(=O)O)cc3OCC(F)(F)F)cn12` [Example 151, 6-[3-methyl-2-[(4-methyl-1,1-dioxo-thian-4-yl)carbamoyl]imidazo[1,2-a]pyridine-6-yl]oxy-5-(2,2,2-trifluoroethoxy)pyridine-3-carboxylic acid], the IC50 is greater than 9990 nM. Turning to `Cc1c(C(=O)NC2(C)CS(=O)(=O)C2)nc2ccc(Oc3ncc(N(C)C)cc3OCC(F)(F)F)cn12` [Example 152, 6-[5-(dimethylamino)-3-(2,2,2-trifluoroethoxy)pyridine-2-yl]oxy-3-methyl-N-(3-methyl-1,1-dioxo-thietan-3-yl)imidazo[1,2-a]pyridin-1-ium-2-carboxamide], the IC50 is 63 nM. This counts as double-digit nanomolar.

In the case of `CC1(NC(=O)c2cn3nc(Oc4ncc(Cl)cc4OCC(F)F)ccc3n2)CCS(=O)(=O)CC1` [Example 153, 6-((5-Chloro-3-(2,2-difluoroethoxy)pyridin-2-yl)oxy)-N-(4-methyl-1,1-dioxidotetrahydro-2H-thiopyran-4-yl)imidazo[1,2-b]pyridazine-2-carboxamide], the IC50 worked out at 3.2 nM.

With `CC(F)(F)COc1cc(Cl)cnc1Oc1ccc2nc(C(=O)NC3(C)CCS(=O)(=O)CC3)cn2n1` [Example 154, 6-[[5-Chloro-3-(2,2-difluoropropoxy)-2-pyridyl]oxy]-N-(4-methyl-1,1-dioxo-thian-4-yl)imidazo[1,2-b]pyridazine-2-carboxamide], the IC50 was determined as 154 nM. Molecule `CC1(NC(=O)c2cn3nc(Oc4ncc(F)cc4OCC4(F)CC4)ccc3n2)CCS(=O)(=O)CC1` [Example 155, 6-[[5-Fluoro-3-[(1-fluorocyclopropyl)methoxy]-2-pyridyl]oxy]-N-(4-methyl-1,1-dioxo-thian-4-yl)imidazo[1,2-b]pyridazine-2-carboxamide] registered an IC50 of 186 nM.

For `CC(F)(F)COc1cc(F)cnc1Oc1ccc2nc(C(=O)NC3(C)CCS(=O)(=O)CC3)cn2n1` [Example 156, 6-[[3-(2,2-Difluoropropoxy)-5-fluoro-2-pyridyl]oxy]-N-(4-methyl-1,1-dioxo-thian-4-yl)imidazo[1,2-b]pyridazine-2-carboxamide], the IC50 was 988 nM. `CC1(NC(=O)c2cn3nc(Oc4ncc(F)cc4OCC4CC4)ccc3n2)CCS(=O)(=O)CC1` [Example 157, 6-[[3-(Cyclopropylmethoxy)-5-fluoro-2-pyridyl]oxy]-N-(4-methyl-1,1-dioxo-thian-4-yl)imidazo[1,2-b]pyridazine-2-carboxamide] showed an IC50 of 18 nM. In turn, `CC1(NC(=O)c2cn3nc(Oc4ncc(F)cc4OC4CCC4)ccc3n2)CCS(=O)(=O)CC1` [Example 158, 6-[[3-(Cyclobutoxy)-5-fluoro-2-pyridyl]oxy]-N-(4-methyl-1,1-dioxo-thian-4-yl)imidazo[1,2-b]pyridazine-2-carboxamide] displayed an IC50 of 590 nM. In the case of `CC1(NC(=O)c2cn3nc(Oc4ncc(Cl)cc4OCC(F)(F)F)ccc3n2)CCS(=O)(=O)CC1` [Example 159, 6-[[5-Chloro-3-(2,2,2-trifluoroethoxy)-2-pyridyl]oxy]-N-(4-methyl-1,1-dioxo-thian-4-yl)imidazo[1,2-b]pyridazine-2-carboxamide] it was 211 nM; in that of `CC1(NC(=O)c2cn3nc(Oc4ncc(F)cc4OCC(F)F)ccc3n2)CCS(=O)(=O)CC1` [Example 160, 6-[[3-(2,2-Difluoroethoxy)-5-fluoro-2-pyridyl]oxy]-N-(4-methyl-1,1-dioxo-thian-4-yl)imidazo[1,2-b]pyridazine-2-carboxamide], 3.9 nM; in that of `O=C(N[C@H]1CCCC(F)(F)[C@@H]1O)c1cn2nc(Oc3ncc(Cl)cc3OCC(F)(F)F)ccc2n1` [Example 161, 6-((5-chloro-3-(2,2,2-trifluoroethoxy)pyridin-2-yl)oxy)-N-((1S,2R)-3,3-difluoro-2-hydroxycyclohexyl)imidazo[1,2-b]pyridazine-2-carboxamide], 37 nM. For the molecule `CC1(NC(=O)c2cn3nc(Oc4ncc(Cl)cc4OCC(F)(F)F)ccc3n2)CS(=O)(=O)C1` [Example 162, 6-[[5-chloro-3-(2,2,2-trifluoroethoxy)-2-pyridyl]oxy]-N-(3-methyl-1,1-dioxo-thietan-3-yl)imidazo[1,2-b]pyridazine-2-carboxamide], the IC50 worked out at 474 nM. This IC50 lies about 13-fold higher than the previous one. `CS(=O)(=O)CC1(NC(=O)c2cn3nc(Oc4ncc(Cl)cc4OCC(F)F)ccc3n2)CCC1` [Example 163, 6-[[5-Chloro-3-(2,2-difluoroethoxy)-2-pyridyl]oxy]-N-[1-(methylsulfonylmethyl)cyclobutyl] imidazo[1,2-b]pyridazine-2-carboxamide] had a half-inhibitory concentration (IC50) of 207 nM. Compared with the last molecule, the IC50 is about 2.3-fold lower. The molecule `CC1(NC(=O)c2cn3nc(Oc4ncc(F)cc4OCC(F)(F)F)ccc3n2)CCS(=O)(=O)CC1` [Example 164, 6-[[5-Fluoro-3-(2,2,2-trifluoroethoxy)-2-pyridyl]oxy]-N-(4-methyl-1,1-dioxo-thian-4-yl)imidazo[1,2-b]pyridazine-2-carboxamide] displayed an IC50 of 16 nM. As to `CC1(NC(=O)c2cn3nc(Oc4nccnc4OCC(F)(F)F)ccc3n2)CCS(=O)(=O)CC1` [Example 165, N-(4-Methyl-1,1-dioxo-thian-4-yl)-6-[3-(2,2,2-trifluoroethoxy)pyrazin-2-yl]oxy-imidazo[1,2-b]pyridazine-2-carboxamide], the IC50 worked out at 901 nM. `Cc1c(C(=O)NC2(C)CCS(=O)(=O)CC2)nc2ccc(Oc3ncc(Cl)cc3OCC(F)F)nn12` [Example 166, 6-((5-Chloro-3-(2,2-difluoroethoxy)pyridin-2-yl)oxy)-3-methyl-N-(4-methyl-1,1-dioxidotetrahydro-2H-thiopyran-4-yl)imidazo[1,2-b]pyridazine-2-carboxamide] returned an IC50 of 6.8 nM. `Cc1c(C(=O)NC2(C)CS(=O)(=O)C2)nc2ccc(Oc3ncc(Cl)cc3OCC(F)F)nn12` [Example 167, 6-((5-chloro-3-(2,2-difluoroethoxy)pyridin-2-yl)oxy)-3-methyl-N-(3-methyl-1,1-dioxidothietan-3-yl)imidazo[1,2-b]pyridazine-2-carboxamide]: the IC50 came out at 11 nM.

As for `Cc1cc2nc(C(=O)NC3(C)CCS(=O)(=O)CC3)cn2nc1Oc1ncc(Cl)cc1OCC(F)F` [Example 168, 6-((5-Chloro-3-(2,2-difluoroethoxy)pyridin-2-yl)oxy)-7-methyl-N-(4-methyl-1,1-dioxidotetrahydro-2H-thiopyran-4-yl)imidazo[1,2-b]pyridazine-2-carboxamide], the IC50 turned out to be 1 nM. `Cc1cc2nc(C(=O)NC3(C)CS(=O)(=O)C3)cn2nc1Oc1ncc(Cl)cc1OCC(F)F` [Example 169, 6-[[5-chloro-3-(2,2-difluoroethoxy)-2-pyridyl]oxy]-7-methyl-N-(3-methyl-1,1-dioxo-thietan-3-yl)imidazo[1,2-b]pyridazine-2-carboxamide] yielded an IC50 of 121 nM. In turn, `Cc1cc2nc(C(=O)NC3(C)CCS(=O)(=O)CC3)c(C)n2nc1Oc1ncc(F)cc1OCC(F)(F)F` [Example 170, 6-[[5-fluoro-3-(2,2,2-trifluoroethoxy)-2-pyridyl]oxy]-3,7-dimethyl-N-(4-methyl-1,1-dioxo-thian-4-yl)imidazo[1,2-b]pyridazine-2-carboxamide] yielded an IC50 of 15 nM. This IC50 lies about 8.1-fold lower than the previous one. Take `Cc1cc2nc(C(=O)NC3(C)CCS(=O)(=O)CC3)c(C)n2nc1Oc1ncc(F)cc1OCC(F)F` [Example 171, 6-[[3-(2,2-difluoroethoxy)-5-fluoro-2-pyridyl]oxy]-3,7-dimethyl-N-(4-methyl-1,1-dioxo-thian-4-yl)imidazo[1,2-b]pyridazine-2-carboxamide]: the IC50 amounted to 1.3 nM. As for `Cc1cc(Oc2ncc(Cl)cc2OCC(F)F)nn2cc(C(=O)NC3(C)CS(=O)(=O)C3)nc12` [Example 172, 6-[[5-chloro-3-(2,2-difluoroethoxy)-2-pyridyl]oxy]-8-methyl-N-(3-methyl-1,1-dioxo-thietan-3-yl)imidazo[1,2-b]pyridazine-2-carboxamide], the figure is 30 nM.
